Assay results from article PMC3960879 (Biology, 2013).
Read-outs that look alike come from different tables or passages of the source.

Columns and labels:
[1] = target: T1, F17aG receptor-binding domain (Escherichia coli, UniProt Q99003); test: biochemical
T1 construct: variants of the lectin domains with oligolysine (4Lys) tails have been constructed; made in house; host or cells: E. coli (periplasm)
Experimental: (§1) The affinity profiles were determined by surface plasmon resonance (SPR) measurements using a BiaCore 3000 instrument (GE Healthcare). […] The proteins were covalently immobilized on CM5 sensor chips (Biacore AB) to an average density of 2000 RU (resonance units in pg/mm^2). On each chip, one flow cell was coated with a camel single domain antibody for use as a reference cell. The other three flow cells (Fc2, Fc3 and Fc4) were coated with three different F17G variants. Carbohydrate concentrations ranging from 10 µM to 10 mM in running buffer (20 mM Hepes, pH 7.4; 150 mM NaCl; 3 mM EDTA and 0.005% surfactant Tween 20) were incubated for one minute on all flow cells simultaneously, at 25 °C and at a flow rate of 30 µL/min. Complete dissociation of the carbohydrates in running buffer was verified before starting a new binding cycle. All binding cycles were performed in duplicate, including a zero concentration cycle (injection of pure running buffer). All analysis was done using the BIAeval software. In each case the equilibrium resonance signal from the reference cell was subtracted from that of the various F17G flow cells (2-1, 3-1, 4-1). A Langmuir binding isotherm with a 1:1 stoichiometry was fitted to the data, from which the equilibrium dissociation constants, Kd, were obtained.

[2] = target: T2, F17bG receptor-binding domain (Escherichia coli, UniProt Q47200); conditions: SPR steady state, 25 °C, pH 7.4; read-out: Affinity range (Kd class), F17bG
T2 construct: variants of the lectin domains with oligolysine (4Lys) tails have been constructed; made in house; host or cells: E. coli (periplasm)
Experimental: as §1

[3] = target: F17fG receptor-binding domain (Escherichia coli, UniProt Q9RH91); test: Surface plasmon resonance steady-state affinity, immobilized F17fG; conditions: SPR steady state, 25 °C, pH 7.4; read-out: Affinity range (Kd class), F17fG
Experimental: as §1

[4] = target: F17eG receptor-binding domain; test: Surface plasmon resonance steady-state affinity, immobilized F17eG; parameters: species or system Escherichia coli; conditions: SPR steady state, 25 °C, pH 7.4
Experimental: as §1

F17aG lectin domain = F17aG lectin domain (Escherichia coli, UniProt Q99003); conditions: array version 4.1, exp. 2053
Text: With mammalian printed array version 4.1, a new evaluation parameter was taken into account, namely % CV = 100 × Std. Dev/Mean. The highest and the lowest point from each set of six replicates have been removed so the average is of 4 values rather than 6. This eliminates some of the false hits that contain a single very high or low point. Thus, points with a high % CV should be considered suspect. […] This comparison provides information on binding specificity. The CFG glycan array data are available containing searchable results by means of flex-based data browser tools.
(§2) A microarray presenting 264 different glycans (mammalian printed array version 2 from the CFG, experiment 400) was used to evaluate whether the F17G variant lectin domains differ in the range of glycan receptors that they can recognize, thereby establishing strain-dependent tropism. […] The glycan array screening has been repeated for F17aG only on printed array version 4.1 (experiment 2053) (Figure 1).

F17bG lectin domain = F17bG lectin domain (Escherichia coli, UniProt Q47200); conditions: array version 2, exp. 400
Experimental: A microarray presenting 264 different glycans (mammalian printed array version 2) was used to evaluate if the F17G variant lectin domains differ in the range of glycan receptors that they recognize, thereby establishing tropism. The microarray was set up within the Consortium for Functional Glycomics (CFG) ([20], and supplemental data). Binding of F17G (200 µg/mL) was detected using anti-F17G polyclonal rabbit IgG (10 µg/mL), followed by fluorescently labelled goat anti-rabbit polyclonal antibodies (IgG-488, 5 µg/mL).
as §2
Printed array version 2 at the Consortium for Functional Glycomics was used for glycan array screening of the variant F17G receptor binding domains. Slides were printed, with six replicates for each glycan, using glycan spotting concentrations of 100 μM, at the Consortium Carbohydrate Synthesis/Protein Expression Core D located at the Scripps Research Institute onto Schott Nexterion H slides (Schott Cat. No. 1070936B). Slide conditioning: preprinted slides were soaked in deionized water for 5 minutes at room temperature and dried under a stream of nitrogen. TSM buffer (20 mM Tris-HCl, pH 7.4, or MOPS 20 mM; 150 mM NaCl; 2 mM CaCl2, 2 mM MgCl2) was used as wash buffer (TSM buffer + 0.05% Tween 20) or binding buffer (TSM buffer + 0.05% Tween 20 + 1% BSA). (1) F17G was diluted to 200 μg/mL (Figure 1) in TSM binding buffer. (2) 50 μL of F17G was applied to the printed surface and coverslipped. (3) The slide was incubated, protected from light, in a humidified chamber for 1 hour at RT. (4) The slide was washed once in TSM wash buffer. 50 μL of the anti-F17G (10 μg/mL) polyclonal rabbit IgG were applied, coverslipped and incubated for 1 h at RT. (5) The slide was washed once in TSM wash buffer. Fifty μL of fluorescently labelled secondary goat anti-rabbit polyclonal antibodies (IgG-488, 5 µg/mL) were applied, coverslipped and incubated for 1 h at RT. (6) Slide was removed, followed by the coverslip, and washed for 10 s each in TSM wash buffer, TSM wash buffer lacking Tween 20, and deionized water. The slide was dried under a stream of nitrogen. (7) The binding image was read in a Perkin Elmer Microscanarray XL4000 scanner and tiff file of image stored. (8) Image analysis was performed using Imagene (V.6) image analysis software. (9) Raw data results files were generated in Excel format and uploaded to the Consortium database as .dat files. (10) Imagene data was uploaded to the database as .txt files.

FedF lectin domain = test: CFG glycan array version 2 (experiment 399), FedF lectin domain; type: binding, Escherichia coli; conditions: CFG glycan array experiment 399; FedF 100 μg/mL
Text: The most highly, triple, sulfated disaccharide (1) is here the best binder: Galβ1,4GlcNAc sulfated at positions 3', 6' and 6 (Table 3). Sulfation of the O6 hydroxyl (2) of GlcNAc is important, as well as N-acetylation on its position 2 (3) because the lactose form has lower affinity. Monosulfation on the non-reducing end galactose (one ion at either 3', 6' or 4') and lack of sulfation at the reducing end GlcNAc each decrease the fluorescence signal dramatically.

FimH = test system: FimH; parameters: method as in PMID 18446213; conditions: cited from earlier work
[5] = SPR steady state, 25 °C, pH 7.4, read-out: Affinity range (Kd class), F17aG
[6] = read-out: Affinity range (Kd class), F17eG
[7] = SPR steady state, 25 °C, pH 7.4, good fit for at least three related experiments, read-out: dissociation constant Kd, F17aG
[8] = good fit for at least three related experiments, read-out: dissociation constant Kd, F17eG

T2 sequence (Q47200 23-199): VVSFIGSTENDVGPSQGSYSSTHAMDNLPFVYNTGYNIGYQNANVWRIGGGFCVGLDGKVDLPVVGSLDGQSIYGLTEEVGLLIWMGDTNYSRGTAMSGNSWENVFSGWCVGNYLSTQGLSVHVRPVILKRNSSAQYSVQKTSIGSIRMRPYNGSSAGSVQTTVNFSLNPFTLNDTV
F17fG receptor-binding domain, sequence (Q9RH91 23-198): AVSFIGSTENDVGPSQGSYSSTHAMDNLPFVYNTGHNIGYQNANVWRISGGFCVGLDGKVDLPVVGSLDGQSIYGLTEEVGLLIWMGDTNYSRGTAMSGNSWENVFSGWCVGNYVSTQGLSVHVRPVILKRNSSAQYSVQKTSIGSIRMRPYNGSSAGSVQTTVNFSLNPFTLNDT
T1 sequence (Q99003 23-199): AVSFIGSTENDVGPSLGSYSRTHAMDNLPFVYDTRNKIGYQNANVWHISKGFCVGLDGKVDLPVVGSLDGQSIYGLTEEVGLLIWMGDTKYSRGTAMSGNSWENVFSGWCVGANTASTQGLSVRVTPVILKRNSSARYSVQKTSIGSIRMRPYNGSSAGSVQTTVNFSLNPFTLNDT
F17aG lectin domain, sequence (Q99003 23-199): as above
F17bG lectin domain, sequence (Q47200 23-199): as the sequence (Q47200 23-199) above

CC(=O)N[C@H]1C(O)O[C@H](CO)[C@@H](O)[C@@H]1OS(=O)(=O)O (stereo partly drawn) [GlcNAc3SO3^−]
Kd [1, 5]: 1 to 10 mM | Kd [2]: 1 to 10 mM | Kd [3]: > 100 mM

CC(=O)N[C@H]1C(O)O[C@H](COP(=O)(O)O)[C@@H](O)[C@@H]1O (stereo partly drawn) [GlcNAc6PO3^2−]
Kd [1, 5]: > 100 mM | Kd [2]: 10 to 100 mM | Kd [3]: > 100 mM

CC(=O)N[C@@H]1[C@@H](O)[C@H](O)[C@@H](COS(=O)(=O)O)O[C@H]1O [GlcNAc6SO3^−]
Kd [1, 5]: 10 to 100 mM | Kd [3]: > 100 mM | Kd [4, 6]: 1 to 10 mM

CO[C@@H]1O[C@H](CO)[C@H](O)[C@H](O[C@@H]2O[C@H](CO)[C@@H](O)[C@H](O)[C@H]2NC(C)=O)[C@H]1O [GlcNAcβ1,3Gal, GlcNAc(β1-3)Galβ1OMe]
Kd ([1]; SPR measurements, text says F17G without variant, read-out: Kd of F17G as stated in the discussion): 0.66 mM | Kd [1, 7]: 0.66 mM | Kd [1, 5]: 0.1 to 1 mM | Kd [2]: 1 to 10 mM | Kd [3]: 0.1 to 1 mM | Kd [4, 8]: 0.28 mM

CO[C@@H]1O[C@H](CO)[C@H](O[C@@H]2O[C@H](CO)[C@@H](O)[C@H](O)[C@H]2NC(C)=O)[C@H](O)[C@H]1O [GlcNAcβ1,4Gal, GlcNAc(β1-4)Galβ1OMe]
Kd [1, 7]: 3.3 mM | Kd [1, 5]: 1 to 10 mM | Kd [4, 8]: 2.7 mM | Kd [4, 6]: 1 to 10 mM

CC(=O)N[C@H]1[C@H](O[C@H]2[C@H](O)[C@@H](NC(C)=O)C(O)O[C@@H]2CO)O[C@H](CO)[C@@H](O)[C@@H]1O (stereo partly drawn) [GlcNAcβ1,4GlcNAc]
Kd [1, 7]: 3.3 mM | Kd [1, 5]: 1 to 10 mM | Kd [2]: 1 to 10 mM | Kd [3]: 1 to 10 mM

CO[C@@H]1O[C@H](CO[C@@H]2O[C@H](CO)[C@@H](O)[C@H](O)[C@H]2NC(C)=O)[C@H](O)[C@H](O)[C@H]1O [GlcNAcβ1,6Gal, GlcNAc(β1-6)Galβ1OMe]
Kd [1, 7]: 2.8 mM | Kd [1, 5]: 1 to 10 mM | Kd [4, 8]: 3.8 mM | Kd [4, 6]: 1 to 10 mM

CC(=O)N[C@H]1C(O)O[C@H](CO)[C@@H](O[C@@H]2O[C@H](CO)[C@@H](O)[C@H](O)[C@H]2N)[C@@H]1O[C@H](C)C(=O)O (stereo partly drawn) [GlcNH2-MurNAc, glucosamine β1,4 N-actetylmuramic acid]
Kd [1, 5]: 10 to 100 mM | Kd [2]: 10 to 100 mM | Kd [3]: > 100 mM

CC(=O)N[C@@H]1C(O)O[C@H](CO)[C@@H](O)[C@@H]1O (stereo partly drawn) [N-acetylmannosamine]
Kd [1, 5]: 1 to 10 mM | Kd [2]: 10 to 100 mM | Kd [3]: 1 to 10 mM

CC(=O)NC1C(O)OC(COS(=O)(=O)O)C(OC2OC(CO)C(O)C(OS(=O)(=O)O)C2O)C1O (stereo not drawn) [[3OSO3]Galβ1,4[6OSO3]GlcNAc]
Rank among binders on CFG array, F17aG (F17aG lectin domain): tenth best binder | Rank among binders on CFG array, F17bG (variant b) (F17bG lectin domain): 28th best binder | RFU (averaged Relative Fluorescence Units for the six replicates), FedF lectin domain (FedF lectin domain): 6,806 RFU

O=S(=O)(O)OCC1OC(O)C(O)C(O)C1OC1OC(CO)C(O)C(OS(=O)(=O)O)C1O (stereo not drawn) [[3OSO3]Galβ1,4[6OSO3]Glc]
RFU (averaged Relative Fluorescence Units for the six replicates), FedF lectin domain (FedF lectin domain): 4,073 RFU

CC(=O)N[C@H]1C(O)O[C@H](COS(=O)(=O)O)[C@@H](O[C@@H]2O[C@H](COS(=O)(=O)O)[C@H](O)[C@H](OS(=O)(=O)O)[C@H]2O)[C@@H]1O (stereo partly drawn) [[3OSO3][6OSO3]Galβ1,4[6OSO3]GlcNAc]
RFU (averaged Relative Fluorescence Units for the six replicates), FedF lectin domain (FedF lectin domain): 10,388 RFU

CC(=O)NC1C(O)OC(CO)C(OC2OC(COS(=O)(=O)O)C(OS(=O)(=O)O)C(O)C2O)C1O (stereo not drawn) [[4OSO3][6OSO3]Galβ1,4GlcNAc]
RFU (averaged Relative Fluorescence Units for the six replicates), FedF lectin domain (FedF lectin domain): 4,568 RFU

O=S(=O)(O)OC[C@H]1O[C@@H](O[C@H]2[C@H](O)[C@@H](O)C(O)O[C@@H]2COS(=O)(=O)O)[C@H](O)[C@@H](O)[C@H]1O (stereo partly drawn) [[6OSO3]Galβ1,4[6OSO3]Glc]
RFU (averaged Relative Fluorescence Units for the six replicates), FedF lectin domain (FedF lectin domain): 5,405 RFU

CC(=O)N[C@H]1[C@H](O[C@H]2[C@H](O)[C@@H](NC(C)=O)C(O)O[C@@H]2CO)O[C@H](CO)[C@@H](O[C@@H]2O[C@H](CO[C@H]3O[C@H](CO)[C@@H](O)[C@H](O)[C@@H]3O)[C@@H](O)[C@H](O[C@H]3O[C@H](CO)[C@@H](O)[C@H](O)[C@@H]3O)[C@@H]2O)[C@@H]1O (stereo partly drawn) [oligomannose-3]
increased binding compared to α-D-mannose (FimH): 100 fold

CC(=O)N[C@H]1[C@H](Oc2ccc([N+](=O)[O-])cc2)O[C@H](CO)[C@@H](O)[C@@H]1O [pNP-GlcNAc, paranitrophenyl β-GlcNAc]
Kd [1, 5]: 0.1 to 1 mM | Kd [2]: 10 to 100 mM | Kd [3]: 1 to 10 mM

Galβ1,6GlcNAc
Kd [3]: 10 to 100 mM | Kd [4, 6]: 1 to 10 mM

HOOC(CH3)CH3-3-O-GlcNAcβ1,4GlcNAcβ-Sp10
Rank among binders on CFG array, F17aG (F17aG lectin domain): highest binding

[3OSO3][6OSO3]Galβ1,4GlcNAc
RFU (averaged Relative Fluorescence Units for the six replicates), FedF lectin domain (FedF lectin domain): 4,733 RFU
